Laboratory results reported in ChEMBL document CHEMBL1201862, “PubChem BioAssay data set” (2004).
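Interpolation was linear, between the two tested concentrations surrounding the appropriate level; five concentrations were tested over 48 hours in 96-well plates. GI50 = concentration required for 50% inhibition of growth.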 Calls of active or inactive are those of the source. No stated cut-off is given here; in the data, active = GI50 up to about 1.1 µM and inactive = higher. Non-standard residues stand in square brackets, D forms with d. Residues, ends and D or L forms follow the SMILES beside them. ΔPro = O=C(O)[CH]1C=CCN1

Tests used:
Assay in all cases: growth of human tumour cells (NCI), 48 h
COLO 205 = test system: COLO 205
A549 = test system: A549
SK-MEL-28 = test system: SK-MEL-28
SNB-75 = test system: SNB-75
NCI-H460 = test system: NCI-H460
RPMI-8226 = test system: RPMI-8226
A498 = test system: A498
MOLT-4 = test system: MOLT-4
TK-10 = test system: TK-10
NCI/ADR-RES = test system: NCI/ADR-RES
KM12 = test system: KM12
CCRF-CEM = test system: CCRF-CEM
MDA-MB-231 = test system: MDA-MB-231
OVCAR-4 = test system: OVCAR-4
MDA-N = test system: MDA-N
M14 = test system: M14
T47D = test system: T47D
Malme-3M = test system: Malme-3M
HOP-62 = test system: HOP-62
SW-620 = test system: SW-620
OVCAR-5 = test system: OVCAR-5
MDA-MB-435 = test system: MDA-MB-435
SNB-19 = test system: SNB-19
BT-549 = test system: BT-549
EKVX = test system: EKVX
SF-539 = test system: SF-539
SK-OV-3 = test system: SK-OV-3
LOX IMVI = test system: LOX IMVI
HL-60 = test system: HL-60
CAKI-1 = test system: CAKI-1
OVCAR-3 = test system: OVCAR-3
SF-295 = test system: SF-295
786-0 = test system: 786-0
U-251 = test system: U-251
RXF 393 = test system: RXF 393
NCI-H522 = test system: NCI-H522
HT-29 = test system: HT-29
HCT-15 = test system: HCT-15
NCI-H23 = test system: NCI-H23
DU-145 = test system: DU-145
HCT-116 = test system: HCT-116
MCF7 = test system: MCF7
SF-268 = test system: SF-268
NCI-H226 = test system: NCI-H226
SN12C = test system: SN12C
PC-3 = test system: PC-3
IGROV-1 = test system: IGROV-1
K562 = test system: K562
OVCAR-8 = test system: OVCAR-8
SK-MEL-2 = test system: SK-MEL-2
ACHN = test system: ACHN
UO-31 = test system: UO-31
Hs-578T = test system: Hs-578T
HCC 2998 = test system: HCC 2998
UACC-257 = test system: UACC-257
SR = test system: SR
SK-MEL-5 = test system: SK-MEL-5
HOP-92 = test system: HOP-92
UACC-62 = test system: UACC-62

SMILES: O=C(O)C1C=CCN1C(=O)C1C=CCN1C(=O)C1C=CCN1 (configuration not stated) (H-[ΔPro]-[ΔPro]-[ΔPro]-OH; configuration not given here)
- GI50 (COLO 205): > 100 µM (inactive)
- GI50 (A549): > 100 µM (inactive)
- GI50 (SK-MEL-28): > 100 µM (inactive)
- GI50 (SNB-75): > 100 µM (inactive)
- GI50 (NCI-H460): > 100 µM (inactive)
- GI50 (RPMI-8226): > 100 µM (inactive)
- GI50 (A498): > 100 µM (inactive)
- GI50 (MOLT-4): > 100 µM (inactive)
- GI50 (TK-10): 30.1 µM (inactive)
- GI50 (NCI/ADR-RES): > 100 µM (inactive)
- GI50 (KM12): > 100 µM (inactive)
- GI50 (CCRF-CEM): > 100 µM (inactive)
- GI50 (MDA-MB-231): > 100 µM (inactive)
- GI50 (OVCAR-4): > 100 µM (inactive)
- GI50 (MDA-N): > 100 µM (inactive)
- GI50 (M14): > 100 µM (inactive)
- GI50 (T47D): > 100 µM (inactive)
- GI50 (Malme-3M): > 100 µM (inactive)
- GI50 (HOP-62): > 100 µM (inactive)
- GI50 (SW-620): > 100 µM (inactive)
- GI50 (OVCAR-5): > 100 µM (inactive)
- GI50 (MDA-MB-435): > 100 µM (inactive)
- GI50 (SNB-19): > 100 µM (inactive)
- GI50 (BT-549): > 100 µM (inactive)
- GI50 (EKVX): > 100 µM (inactive)
- GI50 (SF-539): > 100 µM (inactive)
- GI50 (SK-OV-3): > 100 µM (inactive)
- GI50 (LOX IMVI): > 100 µM (inactive)
- GI50 (HL-60): > 100 µM (inactive)
- GI50 (CAKI-1): > 100 µM (inactive)
- GI50 (OVCAR-3): > 100 µM (inactive)
- GI50 (SF-295): > 100 µM (inactive)
- GI50 (786-0): > 100 µM (inactive)
- GI50 (U-251): > 100 µM (inactive)
- GI50 (RXF 393): 4.21 µM (inactive)
- GI50 (NCI-H522): > 100 µM (inactive)
- GI50 (HT-29): > 100 µM (inactive)
- GI50 (HCT-15): > 100 µM
- GI50 (NCI-H23): > 100 µM (inactive)
- GI50 (DU-145): > 100 µM (inactive)
- GI50 (HCT-116): > 100 µM (inactive)
- GI50 (MCF7): > 100 µM (inactive)
- GI50 (SF-268): > 100 µM (inactive)
- GI50 (NCI-H226): 33.5 µM (inactive)
- GI50 (SN12C): > 100 µM (inactive)
- GI50 (PC-3): > 100 µM (inactive)
- GI50 (IGROV-1): > 100 µM (inactive)
- GI50 (K562): > 100 µM (inactive)
- GI50 (OVCAR-8): > 100 µM (inactive)
- GI50 (SK-MEL-2): > 100 µM (inactive)
- GI50 (ACHN): > 100 µM (inactive)
- GI50 (UO-31): > 100 µM (inactive)
- GI50 (Hs-578T): > 100 µM (inactive)
- GI50 (HCC 2998): > 100 µM (inactive)
- GI50 (UACC-257): > 100 µM (inactive)
- GI50 (SR): > 100 µM (inactive)
- GI50 (SK-MEL-5): > 100 µM (inactive)
- GI50 (HOP-92): > 100 µM (inactive)
- GI50 (UACC-62): > 100 µM (inactive)

SMILES: CCCc1nc(Cl)nc(Cl)c1Cl
- GI50 (COLO 205): 0.232 µM (active)
- GI50 (A549): 2.22 µM (inactive)
- GI50 (SK-MEL-28): 0.472 µM (active)
- GI50 (SNB-75): 1.22 µM (inactive)
- GI50 (NCI-H460): 0.505 µM (active)
- GI50 (RPMI-8226): 0.258 µM (active)
- GI50 (A498): 2.87 µM (inactive)
- GI50 (MOLT-4): 0.065 µM (active)
- GI50 (TK-10): 0.762 µM (active)
- GI50 (NCI/ADR-RES): 0.32 µM (active)
- GI50 (KM12): 0.543 µM (active)
- GI50 (CCRF-CEM): < 0.0264 µM (active)
- GI50 (MDA-MB-231): 0.665 µM (active)
- GI50 (OVCAR-4): 0.0871 µM (active)
- GI50 (MDA-N): 0.0234 µM (active)
- GI50 (M14): 0.336 µM (active)
- GI50 (T47D): 0.857 µM (active)
- GI50 (Malme-3M): 0.453 µM (active)
- GI50 (HOP-62): 0.908 µM (active)
- GI50 (SW-620): 0.0675 µM (active)
- GI50 (OVCAR-5): 0.817 µM (active)
- GI50 (MDA-MB-435): 0.422 µM (active)
- GI50 (SNB-19): 1.16 µM (inactive)
- GI50 (BT-549): 0.0227 µM (active)
- GI50 (EKVX): 1.03 µM (active)
- GI50 (SF-539): 1.52 µM (inactive)
- GI50 (SK-OV-3): 3.01 µM (inactive)
- GI50 (LOX IMVI): 0.0865 µM (active)
- GI50 (HL-60): 0.189 µM (active)
- GI50 (CAKI-1): 0.251 µM (active)
- GI50 (OVCAR-3): 0.129 µM (active)
- GI50 (SF-295): 2.33 µM (inactive)
- GI50 (786-0): 0.127 µM (active)
- GI50 (U-251): 0.67 µM (active)
- GI50 (RXF 393): 0.256 µM (active)
- GI50 (NCI-H522): 0.374 µM (active)
- GI50 (HT-29): 0.269 µM (active)
- GI50 (HCT-15): 0.0796 µM
- GI50 (NCI-H23): 0.45 µM (active)
- GI50 (DU-145): 2.41 µM (inactive)
- GI50 (HCT-116): 0.259 µM (active)
- GI50 (MCF7): 0.137 µM (active)
- GI50 (SF-268): 1.85 µM (inactive)
- GI50 (NCI-H226): 2.35 µM (inactive)
- GI50 (SN12C): 0.726 µM (active)
- GI50 (PC-3): 0.438 µM (active)
- GI50 (IGROV-1): 0.807 µM (active)
- GI50 (K562): < 0.0343 µM (active)
- GI50 (OVCAR-8): 0.456 µM (active)
- GI50 (SK-MEL-2): 0.291 µM (active)
- GI50 (ACHN): 0.611 µM (active)
- GI50 (Hs-578T): 0.475 µM (active)
- GI50 (HCC 2998): 1.08 µM (active)
- GI50 (UACC-257): 0.615 µM (active)
- GI50 (SR): < 0.0154 µM (active)
- GI50 (SK-MEL-5): 0.935 µM (active)
- GI50 (HOP-92): 0.0104 µM (active)
- GI50 (UACC-62): 0.703 µM (active)
